Measurements: publication PMC8968952, “Modulation of ERCC1-XPF Heterodimerization Inhibition via Structural Modification of Small Molecule Inhibitor Side-Chains” (Frontiers in Oncology, 2022)

Key:
[1] = tested on: HCT-116 cells; experiment: Cellular repair of cyclobutane pyrimidine dimers (cellular NER) after UVC; assay type: cell-based, human; conditions: 2 μM
Method: We followed the protocol of Mirzayans et al. ([79]) with minor modifications as previously described ([70]). Inhibitor compounds were dissolved in DMSO and applied to a final DMSO concentration of 0.2% in media and 0.2% DMSO was used as the vehicle control. Mouse anti-thymine dimer monoclonal antibody (cat. no. MC-062, Kamiya Biomedical Company, Seattle, WA) was used for the immunofluorescence following UVC irradiation of the cells and fluorescent microscopic evaluation and measurement of fluorescence intensity were performed using MetaXpress, version 6.2.1.704, software (Molecular Devices, Sunnyvale, California). Data were plotted using GraphPad Prism version 5.04 software.
Immunofluorescent detection of cyclobutane pyrimidine dimers (CPD) generated in the DNA of HCT-116 cells after exposure to UVC radiation was used to measure NER. Our observations that approximately 80% of CPD were removed 24 hours post irradiation in the absence of any inhibitors mirrors previous observations ([70], [79]).

[2] = tested on: HCT-116 cells; experiment: Clonogenic survival assay, UV treatment; assay type: cell-based, human
Method: HCT-116 cells (100–800 cells depending on the UV dose) were plated in triplicate in 60-mm Petri dishes in DMEM/F12 medium. Following overnight attachment of the cells in a humidified atmosphere containing 5% CO2 at 37°C, the cells were treated with 0.5 μM compound 6 or 10 in DMSO (as described in section 2.7) for 4 h before the medium was removed, and the cells exposed to increasing doses (0–10 J/m^2) of UV-C radiation. The cells were then cultured for a further 24 h in the presence of inhibitor and then for an additional 9 days in the absence of inhibitor to allow for colony formation. Colonies were stained with crystal violet and counted using a Colcount instrument (Oxford Optronix, Abingdon UK) to facilitate determination of plating efficiency and surviving fraction. Data were plotted using GraphPad Prism version 5.04 software.

[3] = tested on: HCT-116 cells; experiment: Cytotoxicity assay using colony forming assay; assay type: cell-based, human; conditions: 0.5 μM
Method: HCT-116 cells were incubated with media containing a non-toxic concentration of 6 or 10 ( Supplementary Figure 3 ) prior to exposure to the DNA damaging agents. […]
nitrocellulose. Proteins were visualized using ERCC1 (A73368-100, 1:1000; EpiGentek), XPF (LS- […]
primary antibodies followed by secondary anti-mouse or anti-rabbit secondary HRP-conjugated secondary antibodies. ECL chemiluminescent substrate (Promega) was used to detect the proteins.
Supplementary Figure 3. Cytotoxicity assay using colony forming assay
4 HCT-116 Derived XPF Knockout Cells
For CRISPR deletion of XPF from HCT-116 cells, the pSpCas9(BB)-2A-GFP (pX458) vector (Addgene plasmid # 48138) was used. The short guide sequence to target XPF exon one was: 5'- […]
- 3' and target XPF exon eight was: 5'-
-3'. All short guide sequences oligonucleotides were synthesized, annealed and cloned into pX458 vector and were confirmed by DNA sequencing at DNA laboratory, University of Calgary. The DNA plasmid (pX458 containing XPF short guide RNA sequence, 5 µg) was transfected into HCT-116 cells using Lipofectamine 2000 (Invitrogen) according to the manufacturer’s instructions. Forty-eight hours after transfection, cells were harvested and genomic DNA was isolated using the KAPA Express Extract Kit (Kapa Biosystems) according to the manufacturer’s instructions. […]

[4] = Distribution coefficient (log D at pH 7.4); assay type: physicochemical
Method: (§1) The ADME (absorption, distribution, metabolism, and excretion) profile of our lead compound 6 was determined by standard protocols carried out by WuXi AppTec (Shanghai) Co (https://www.wuxiapptec.com/). The following tests were conducted: distribution coefficient (log D at pH 7.4), aqueous solubility (Kinetic), metabolic stability in human liver microsomes and cryopreserved human hepatocytes, bidirectional permeability in Caco-2 cells, serum protein binding, and cytochrome P450 (CYP) inhibition (CYP1A2, CYP2C9, CYP2C19, CYP2D6, and CYP3A4-M).

[5] = target: T1, CYP1A2 (Homo sapiens, UniProt P05177); experiment: Cytochrome P450 inhibition, CYP1A2; assay type: in vitro ADME
T1 sequence (P05177 1-516): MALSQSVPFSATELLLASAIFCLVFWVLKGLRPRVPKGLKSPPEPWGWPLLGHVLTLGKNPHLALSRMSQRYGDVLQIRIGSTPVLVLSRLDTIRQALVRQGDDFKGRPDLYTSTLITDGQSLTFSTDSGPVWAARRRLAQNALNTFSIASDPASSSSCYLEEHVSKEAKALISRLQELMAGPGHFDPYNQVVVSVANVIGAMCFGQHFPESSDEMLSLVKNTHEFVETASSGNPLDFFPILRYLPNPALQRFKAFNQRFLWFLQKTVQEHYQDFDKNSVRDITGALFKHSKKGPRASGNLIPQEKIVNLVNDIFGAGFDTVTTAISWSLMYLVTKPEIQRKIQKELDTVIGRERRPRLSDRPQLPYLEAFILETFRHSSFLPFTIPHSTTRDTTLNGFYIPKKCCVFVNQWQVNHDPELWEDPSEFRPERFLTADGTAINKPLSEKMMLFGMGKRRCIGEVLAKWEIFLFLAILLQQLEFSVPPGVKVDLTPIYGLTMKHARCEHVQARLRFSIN
Method: as §1

[6] = target: CYP2D6 (Homo sapiens, UniProt P10635); experiment: Cytochrome P450 inhibition, CYP2D6; assay type: in vitro ADME
CYP2D6, sequence (P10635 whole entry): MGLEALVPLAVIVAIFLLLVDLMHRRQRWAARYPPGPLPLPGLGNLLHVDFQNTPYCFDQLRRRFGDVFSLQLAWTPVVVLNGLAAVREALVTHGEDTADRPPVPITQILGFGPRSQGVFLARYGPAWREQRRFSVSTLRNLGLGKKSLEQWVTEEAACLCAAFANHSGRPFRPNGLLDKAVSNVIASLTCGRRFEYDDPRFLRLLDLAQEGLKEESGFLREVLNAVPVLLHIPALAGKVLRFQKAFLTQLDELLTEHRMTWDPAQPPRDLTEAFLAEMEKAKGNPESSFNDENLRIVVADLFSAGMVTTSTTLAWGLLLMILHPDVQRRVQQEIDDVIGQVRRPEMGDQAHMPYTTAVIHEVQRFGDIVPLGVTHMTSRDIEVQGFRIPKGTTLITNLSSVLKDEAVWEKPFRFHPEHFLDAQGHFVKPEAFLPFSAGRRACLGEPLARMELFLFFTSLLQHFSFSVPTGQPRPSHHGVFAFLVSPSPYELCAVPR
Method: as §1

[7] = target: CYP3A4-M (Homo sapiens, UniProt P08684); experiment: Cytochrome P450 inhibition, CYP3A4-M; assay type: in vitro ADME
CYP3A4-M, sequence (P08684 whole entry): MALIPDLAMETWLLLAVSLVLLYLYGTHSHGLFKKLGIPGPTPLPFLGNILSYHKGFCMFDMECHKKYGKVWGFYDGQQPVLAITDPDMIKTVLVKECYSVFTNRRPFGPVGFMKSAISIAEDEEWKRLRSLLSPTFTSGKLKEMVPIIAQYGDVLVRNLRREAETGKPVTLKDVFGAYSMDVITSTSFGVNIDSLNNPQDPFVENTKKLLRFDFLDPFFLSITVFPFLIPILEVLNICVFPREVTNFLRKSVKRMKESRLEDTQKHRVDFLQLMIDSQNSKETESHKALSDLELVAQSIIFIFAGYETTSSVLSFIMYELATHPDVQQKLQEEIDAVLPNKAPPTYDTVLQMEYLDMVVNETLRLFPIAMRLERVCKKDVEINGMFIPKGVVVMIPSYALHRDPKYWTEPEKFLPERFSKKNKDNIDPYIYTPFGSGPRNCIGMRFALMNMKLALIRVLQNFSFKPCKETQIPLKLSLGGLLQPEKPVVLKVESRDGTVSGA
Method: as §1

## COc1ccc2nc3cc(Cl)ccc3c(Nc3ccc(O)c(CN4CCN(CCN(C(C)C)C(C)C)CC4)c3)c2c1 [Compound 6]
[1]
  effect on CPD removal / cellular NER (in words): significant inhibition of NER
[2]; 0.5 μM
  sensitization to UVC radiation (in words): sensitized cells to UVC radiation
[2]; 0.5 μM compound, 4 J/m^2 UVC
  cell survival after UVC: < 50%
[3]
  toxicity of the concentration used (in words): non-toxic
[4]
  logD: 3.95
[5]
  CYP1A2 inhibition grade (in words): moderate inhibitor
  IC50: 6.51 µM
[6]
  CYP2D6 inhibition grade (in words): moderate inhibitor
  IC50: 2.92 µM
[7]
  CYP3A4-M inhibition grade (in words): moderate inhibitor
  IC50: 1.9 µM
